Patent US6482827B1, “Matrix metalloproteinase inhibitors” (Pharmacia & Upjohn S.p.A., priority 1997, dated 2002)
≈ marks a conversion by molar mass, not a printed value.

Legend:
[1] = molecular target: T1, Human collagenase (MMP-1) (Homo sapiens, UniProt P03956); assay: Biochemical assay (Protocol A), Ki at steady state, MMP-1; details: preincubation, 37° C., pH=7.4, read-out: Ki at steady state (Ki*) for inhibition of MMP-1
T1 sequence (P03956 101-269): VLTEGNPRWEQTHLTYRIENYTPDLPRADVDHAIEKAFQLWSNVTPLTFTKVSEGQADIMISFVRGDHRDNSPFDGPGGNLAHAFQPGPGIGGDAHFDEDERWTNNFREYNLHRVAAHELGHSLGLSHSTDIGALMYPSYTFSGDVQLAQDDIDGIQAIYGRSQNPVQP
Procedure: (§1) Human gelatinase-A (MMP-2) was obtained as pro-enzyme (72 kDa) and was activated with 1 mM 4-aminophenylmercuric acetate for 30 min at 37° C. immediately prior to use. Human stromelysin-1-255 (MMP-3) was obtained as a recombinant pro-enzyme isolated from E. coli and activated by heat (1 h, 55° C.).
(§2) The substrate was the commercial quenched-fluorescence peptide Mca-Pro-Leu-Gly-Leu-Dpa-Ala-Arg-NH2, that is (7-methoxycoumarin4-yl)Acetyl-Pro-Leu-Glv-Leu-(3-[2,4-dinitrophenyl]-L-2,3-diamino-propionyl)-Ala-Arg-NH2 (C. G. Knight et al., FEBS Lett.296:263, 1992). The enzymes cleave at the Gly-Leu bond, removing the internally quenching Dpa group. Release of the highly fluorescent peptide Mca-Pro-Leu was followed fluorimetrically at 37° C. using a Perkin Elmer LS-50 Fluorescence Spectrophotometer fitted with a thermostatted four position stirring cell changer. The excitation wavelength was set at 326 nm (bandwidth 5 nm) and the emission at 392 nm (bandwidth 20 nm). Km values of this substrate for the three MMP's is 70 μM or more (Knight et al., reference above). Substrate concentration was 2 μM in the tests, so that we could approximate to unit the term (1+[substrate]/KM) in calculations. The substrate was stable for over 60 minutes in the assay conditions, giving no appreciable increment of fluorescence. Full response was adjusted against 200 nM Mca-Pro-Leu-OH (the released fluorescent peptide) and the instrument was calibrated in the range 0-100 nM Mca-Pro-Leu-OH, corresponding to 0-5% extent of hydrolysis of the 2 μM substrate. The aqueous assay buffer was 50 mM Tris/HCl pH=7.4 containing 0.15 M NaCl, 10 mM CaCl2, 0.01 mM ZnCl2 and 0.05% Brij 35. The concentration of the activated enzyme was determined by titration against representative inhibitors described in the literature and synthesized in house: Roche Ro31-9790 (N. G. Knebel et al., J. Chromatogr. B 673:213, 1995) for MMP-1, and Celltech CT-1418 (compound 1 in S. K. Chander, J. Pharm. Sci. 84:404, 1995) for MMP-2 and MMP-3. Enzyme concentrations in the tests were set at 1.0 nM for MMP-1, 0.04 nM for MMP-2, and 3.0 nM for M-3. Under our assay conditions, we measured keat/KM values of 26900, 669000 and 9740 1/(M×s) for MMP-1, MMP-2 and MMP-3, respectively. All the three enzymes were found stable for over three hours in the assay conditions.
(§3) The inhibition constant for compounds of the present invention was measured at steady state (Ki*; see J. F. Morrison and C. T. Walsh, Adv. Enzymol. Relat. Areas Mol. Biol. 61:201, 1988), upon preincubation experiment, by measuring V0, the initial rate in the absence of inhibitor, and Vs, the steady-state velocity, at different concentrations of inhibitors in the region of their enzyme-inhibitor dissociation constants.
(§4) On a routine basis, 1.94 mL of assay buffer was pre-heated at 37° C. in a vial, 0.02 mL of inhibitor in DMSO (or DMSO only), and 0.02 ml of 100 nM MMP-1 or 4 nM MMP-2 or 300 nM MMP-3 were added, mixed, and the vial was held at 37° C. for 5-180 minutes. Then 0.02 ml of 0.2 mM substrate was added, mixed and transferred into a pre-heated cell. The sample was allowed to equilibrate in the cuvette for 3-5 min at 37° C. against small changes in temperature and changes in the enzyme-inhibitor equilibria related to addition of substrate. After that, the linear increase of fluorescence was monitored over 3-5 min, and the slope (Vo or Vs) was obtained. Inhibitor concentrations were varied to collect data over Vs/Vo ratio ranging from 0.05 to 0.95. The values of Ki* were calculated by nonlinear weighted regression to the tight-binding equation according to Morrison and Walsh above:
(§5) Vs/Vo=[1/(2×Et)]×SQR[(Ki*+It−Et)^2+4×Ki*×Et]−(Ki*+It−Et)
(§6) wherein Et is the total enzyme concentration, and It is the total inhibitor concentration. The following Table I lists Ki* obtained for some representative examples: […]

[2] = molecular target: T2, Human gelatinase-A (MMP-2) (Homo sapiens, UniProt P08253); assay: Biochemical assay (Protocol A), Ki at steady state, MMP-2; details: preincubation, 37° C., pH=7.4, read-out: Ki at steady state (Ki*) for inhibition of MMP-2
T2 sequence (P08253 110-660): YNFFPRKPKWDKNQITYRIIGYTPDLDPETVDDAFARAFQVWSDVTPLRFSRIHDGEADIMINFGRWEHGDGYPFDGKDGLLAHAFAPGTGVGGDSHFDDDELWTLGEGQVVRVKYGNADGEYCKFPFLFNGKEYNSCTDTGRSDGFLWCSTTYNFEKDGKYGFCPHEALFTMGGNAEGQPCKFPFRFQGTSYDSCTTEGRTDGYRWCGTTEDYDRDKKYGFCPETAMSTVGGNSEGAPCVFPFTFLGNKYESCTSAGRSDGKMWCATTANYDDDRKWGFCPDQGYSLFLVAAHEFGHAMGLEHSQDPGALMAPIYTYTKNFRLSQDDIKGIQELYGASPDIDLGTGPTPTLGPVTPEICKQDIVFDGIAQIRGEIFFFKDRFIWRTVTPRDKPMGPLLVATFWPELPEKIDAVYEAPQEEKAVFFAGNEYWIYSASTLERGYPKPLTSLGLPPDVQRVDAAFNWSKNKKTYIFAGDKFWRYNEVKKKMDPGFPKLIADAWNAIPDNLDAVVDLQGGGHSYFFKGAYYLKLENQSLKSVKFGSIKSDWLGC
Procedure: as §1, §2, §3, §4, §5, §6

[3] = molecular target: T3, Human stromelysin-1-255 (MMP-3) (Homo sapiens, UniProt P08254); assay: Biochemical assay (Protocol A), Ki at steady state, MMP-3; details: preincubation, 37° C., pH=7.4, read-out: Ki at steady state (Ki*) for inhibition of MMP-3
T3 construct: host or cells: E. coli
Procedure: as §1, §2, §3, §4, §5, §6

Aqueous solubility = assay type: physicochemical; details: 25° C.; for solubility: water
[4] = PK parameters in rats, iv route; details: rat, in vivo, 10-15 mg/kg
Procedure: As a further example, Table 3 reports clearance and AUC values measured after intravenous administration to rats of a […] of some representative compounds of the present invention.

[5] = PK parameters, oral route, rat; assay type: in vivo; details: 10-15 mg/kg; for bioavailability: read-out: % F (oral bioavailability)
Procedure: (§7) As an additional example, Table 4 reports the maximum plasma concentration (Cmax) and oral bioavailability (% F; calculated from dose-normalised ratio of oral to i.v. mean AUC values) after oral administration to rats or cynomolgus monkeys of a […] of some representative compounds of the present invention.

[6] = PK parameters, oral route, cynomolgus monkey; assay type: in vivo; details: 10-15 mg/kg
Procedure: as §7

[7] = plasma, dose-normalised ratio of oral to i.v. mean AUC
[8] = dose-normalised ratio of oral to i.v. mean AUC

T3 sequence (P08254 100-255 limits assumed): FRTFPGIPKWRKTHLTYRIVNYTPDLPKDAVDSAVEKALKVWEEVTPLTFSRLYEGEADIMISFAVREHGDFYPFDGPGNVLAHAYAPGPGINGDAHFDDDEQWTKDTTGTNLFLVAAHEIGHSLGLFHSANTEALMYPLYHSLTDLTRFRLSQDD

Structure (SMILES) | Ki [1] [nM] | Ki [2] [nM] | Ki [3] [nM] | solubility (Aqueous solubility; Conditions B) [µg/mL] | further results
Cc1ccc(S(=O)(=O)N[C@H](C(=O)NO)[C@@H](CC(C)C)C(=O)N2CCOCC2)cc1 [Example 12, (4-Hydroxyamino-2R-isobutyl-3S-(4-toluenesulfonyl)amino)succinyl-morpholinamide] | 41 | 190 | 380 |  | AUC [4]: 6580 ng·h/mL; clearance [4]: 39 mL/min/kg; bioavailability [5, 7]: 21%; Cmax ([5]; plasma, read-out: Cmax): 2440 ng/mL
COc1ccc(CCC[C@@H](C(=O)N2CCOCC2)[C@H](NC(=O)OC(C)(C)C)C(=O)O)cc1 [Example 13, (3S-tert-Butoxycarbonylamino-4-hydroxy-2R-(4-methoxy)phenpropyl)succinyl-morpholinamide] |  |  |  |  | Aqueous solubility (Aqueous solubility; Conditions A): 6.71 mg/mL
COc1ccc(CCC[C@@H](C(=O)N2CCOCC2)[C@H](N)C(=O)O)cc1 [Example 14, (3S-Amino-4-hydroxy-2R-(4-methoxy)phenpropyl)succinyl-morpholinamide] |  |  |  |  | Aqueous solubility (Aqueous solubility; Conditions B): >14 mg/mL
CC(C)C[C@@H](C(=O)N1CCCCC1)[C@H](NC(=O)OC(C)(C)C)C(=O)NO [Example 2, (3S-tert-Butoxycarbonylamino-4-hydroxyamino-2R-isobutyl)succinyl-piperidinamide] | 1100 | 2800 | 13000 |  | solubility (Aqueous solubility; Conditions A): > 4500 µg/mL
COc1ccc(CCC[C@@H](C(=O)N2CCOCC2)[C@@H](C(=O)NO)N(C)C)cc1 [Example 19, (3S-N,N-Dimethylamino-4-hydroxyamino-2R-(4-methoxy)phenpropyl)succinyl-morpholinamide] | 4500 | 230 | 1100 |  | AUC [4]: 9380 ng·h/mL; clearance [4]: 27 mL/min/kg; solubility (Aqueous solubility; Conditions A): 7500 µg/mL (≈ 19.1 mM)
CC(C)C[C@@H](C(=O)N1CCCCC1)[C@@H](C(=O)NO)N(C)C [Example 5, (3SN,N-Dimethylamino-4-hydroxyamino-2R-isobutyl)succinyl-piperidinamide] | 61 | 310 | 940 | > 6000 | 
CC(C)C[C@@H](C(=O)N1CCOCC1)[C@H](N)C(=O)NO [Example 10, (3S-Amino-4-hydroxyamino-2R-isobutyl)succinyl-morpholinamide] | 180 | 340 | 2200 |  | AUC [4]: 11100 ng·h/mL; clearance [4]: 24 mL/min/kg; bioavailability [5, 7]: 28%; Cmax ([5]; plasma, read-out: Cmax): 2120 ng/mL

The next lines start with results.

Ki [1] [nM] | Ki [2] [nM] | Ki [3] [nM] | solubility (Aqueous solubility; Conditions B) [µg/mL] | Structure (SMILES) | further results
850 | 79 | 860 | > 9600 | COc1ccc(CCC[C@@H](C(=O)N2CCCCC2)[C@H](N)C(=O)NO)cc1 [Example 18, (3S-Amino-4-hydroxyamino-2R-(4-methoxy)phenpropyl)succinyl-piperidinamide] | 
26 | 58 | 490 |  | C[C@@H](NC(=O)[C@H](CC1CCCC1)[C@H](N)C(=O)NO)C1CCCCC1 [Example 50, (3S-Amino-2R-cyclopentylmethyl-4-hydroxyamino)succinyl-(1R-cyclohexylethyl)amide] | Cmax [6]: 49516 ng/mL; % F (oral bioavailability) [6, 8]: 70%; Cmax [5]: 3146 ng/mL; % F (oral bioavailability) [5, 8]: 50%
88 | 290 | 2500 |  | CC(C)C[C@@H](C(=O)N1CCCCC1)[C@H](N)C(=O)NO [Example 3, (3S-Amino-4-hydroxyamino-2R-isobutyl)succinyl-piperidinamide] | solubility (Aqueous solubility; Conditions A): > 9500 µg/mL
15 | 67 | 730 | > 8200 | N[C@H](C(=O)NO)[C@@H](CC1CCCC1)C(=O)N1CCCCC1 [Example 22, (3S-Amino-2R-cyclopentylmethyl-4-hydroxyamino)succinyl-piperidinamide] | bioavailability [5, 7]: 62%; Cmax ([5]; plasma, read-out: Cmax): 5490 ng/mL
6400 | 94 | 2400 | > 9600 | COc1ccc(CCC[C@@H](C(=O)N2CCOCC2)[C@H](N)C(=O)NO)cc1 [Example 16, (3S-Amino-4-hydroxyamino-2R-(4-methoxy)phenpropyl)succinyl-morpholinamide] | 
70 | 250 | 720 |  | COc1ccc(S(=O)(=O)N[C@H](C(=O)NO)[C@@H](CC(C)C)C(=O)N2CCCCC2)cc1 [Example 7, (4-Hydroxyamino-3S-(4-methoxyphenylsulfonyl)amino-2R-isobutyl)succinyl-piperidin-amide] | solubility (Aqueous solubility; Conditions A): 4000 µg/mL (≈ 9.06 mM)
6.5 | 20 | 240 | 7100 (≈ 16.4 mM) | N[C@H](C(=O)NO)[C@@H](CC1CCCC1)C(=O)N1CCN(Cc2ccc3c(c2)OCO3)CC1 [Example 27, (3S-Amino-2R-cyclopentylmethyl-4-hydroxyamino)succinyl-(4-piperonyl)piperazinamide] | AUC [4]: 11300 ng·h/mL; clearance [4]: 23 mL/min/kg; bioavailability ([6]; plasma, dose-normalised ratio of oral to i.v. mean AUC, read-out: % F (oral bioavailability)): 34%; Cmax ([6]; plasma, read-out: Cmax): 3130 ng/mL; bioavailability [5, 7]: 58%; Cmax ([5]; plasma, read-out: Cmax): 7910 ng/mL
76 | 190 | 2300 |  | CC(C)C[C@@H](C(=O)NC(c1ccccc1)c1ccccc1)[C@H](N)C(=O)NO [Example 25, (3S-Amino-4-hydroxyamino-2R-isobutyl)succinyl-diphenylmethylamide] | 
